# Results taken from US6455588B1, “Compositions including modafinil for treatment of eating disorders and for appetite stimulation” (Cephalon, Inc., priority 1999, dated 2002).
# How the values were obtained:
# [1] = test system: orexin neurons; experiment: Double immunostaining for orexin and Fos, cell counts in the perifornical region of modafinil-treated mice; type: in vivo; details: wild-type mice, 150 mg/kg i.p., 2 hours
# Protocol: To determine that modafinil might act through orexin neurons, wild-type mice were injected at noon with modafinil (150 mg/kg i.p.), or vehicle, and sacrificed 2 hours later. Brains were removed, double immunostained for orexin and Fos (an indicator of neuronal activity), and cells were counted in the periforllical region. The number of orexin-immunoreactive neurons was the same in both groups (44-47 cells/section), but the modafinil-treated group had over three times as many Fos-immunoreactive neuronal nuclei (38 in the modafinil-treated mice vs. 11 in the vehicle controls; p=0.01). Within the population of orexin-immunoreactive neurons, modafinil induced a 9-fold increase in the number of Fos-immunoreactive cells (64% double labeled neurons in the modafinil group vs. 7% in the vehicle group, p=0.01) (FIG. 1). Thus, in the lateral hypothalamus, modafinil treatment is associated with activation of orexin neurons, and is thus useful as a treatment for eating disorders or for increasing appetite.
# [2] = 400 mg/day, clinical trials; cited from earlier work
# [3] = test system: neurons of the TMN and VLPO of the hypothalamus; experiment: Neuronal activity in hypothalamic nuclei (TMN, VLPO) after modafinil administration; type: in vivo, rats
# Description: Activation of this histaminergic pathway by modafinil results in cortical activation and wakefulness. Thus, it appears that the physiologic basis for the wake-promoting actions of modafinil involves disinhibition of histaminergic neurons of the TMN by inhibitory actions on the VLPO. This represents the first pharmacologic agent known to produce wakefulness by activation of the TMN.
smiles,measurement,setting,value
"NC(=O)C[S+]([O-])C(c1ccccc1)c1ccccc1 (stereo not drawn) [modafinil, 2-(benzhydrylsulfinyl) acetamide]",Fos-immunoreactive neuronal nuclei,"[1]; perifornical region, vehicle 11, p=0.01",38
same,double labeled (orexin/Fos) neurons within orexin-immunoreactive neurons,"[1]; vehicle 7%, p=0.01",64%
same,increase in the number of Fos-immunoreactive cells within orexin-immunoreactive neurons,[1]; versus vehicle,9 fold
same,tolerability,[2],well tolerated
same,activity of the neurons in the ventrolateropreoptic area (VLPO) of the hypothalamus,[3]; rats,reduced the activity
same,activity in the TMN of the posterior hypothalamus,[3]; wakefulness-promoting doses,stimulation of activity
